According to patent US20200165574A1, “METHODS OF PREPARING NAÏVE HUMAN PLURIPOTENT STEM CELLS” (REGENTS OF THE UNIVERSITY OF MINNESOTA, priority 2017, published 2020):
Entries after “also recorded” stand apart in the source; their conditions may differ.

B1: full-length recombinant vitronectin: xeno-free recombinant full-length vitronectin (PeproTech), coated on plate at 5 μg/mL as culture substrate (protein, UniProt P04004 1-478, looked up)
chain: MAPLRPLLILALLAWVALADQESCKGRCTEGFNVDKKCQCDELCSYYQSCCTDYTAECKPQVTRGDVFTMPEDEYTVYDDGEEKNNATVHEQVGGPSLTSDLQAQSKGNPEQTPVLKPEEEAPAPEVGASKPEGIDSRPETLHPGRPQPPAEEELCSGKPFDAFTDLKNGSLFAFRGQYCYELDEKAVRPGYPKLIRDVWGIEGPIDAAFTRINCQGKTYLFKGSQYWRFEDGVLDPDYPRNISDGFDGIPDNVDAALALPAHSYSGRERVYFFKGKQYWEYQFQHQPSQEECEGSSLSAVFEHFAMMQRDSWEDIFELLFWGRTSAGTRQPQFISRDWHGVPGQVDAAMAGRIYISGMAPRPSLAKKQRFRHRNRKGYRSQRGHSRGRNQNSRRPSRATWLSLFSSEESNLGANNYDDYRMDWLVPATCEPIQSVFFFSGDKYYRVNLRTRRVDTVDPPYPRSIAQYWLGCPAPGHL
modifications: full-length
notes: xeno-free recombinant full-length vitronectin (PeproTech), coated on plate at 5 μg/mL as culture substrate

Assays:
Assay type in all cases: cell-based, human
[1] = test system: primed HPSCs; experiment: ERK inhibitor assay, primed PSCs; details: 10 nM ERK inhibitor in media, imaged each day for 4 days
Procedure: (§1) One day after passaging, 10 nM ERK inhibitor PD0325901 (PZ0162, Sigma-Aldrich, St. Louis, Mo.) was added to naïve or primed PSCs. Cells were imaged each day for 4 days to follow morphology changes.

[2] = test system: naïve HPSCs; experiment: ERK inhibitor assay, naïve PSCs; details: naïve HPSCs in RSet media, additional 10 nM ERK inhibitor, imaged each day for 4 days; listed as PD325901
Procedure: as §1

[3] = test system: primed HPSCs; experiment: Feeder-free transition of primed HPSCs to the naïve state on a culture substrate; details: RSet media, substrate-coated plate
Procedure: Primed induced pluripotent stem cell (PCBC16iPS) (Ye et al. (2013) PLoS ONE 8 (1):e53764) to be used for naïve cell derivation were cultured for at least two passages in mTeSR1 medium (STEMCELL Technologies, Vancouver, Canada) in either normoxic (20% O2, 5% CO2) or hypoxic conditions (5% O2, 5% CO2). Primed iPSCs were treated with Gentle Cell Dissociation Reagent (STEMCELL Technologies, Vancouver, Canada) for 5 minutes at room temperature and removed from the plate with a 5 milliliter (mL) pipette in 1 mL TeSR1 medium. Aggregates of 250 primed iPSCs were plated in 1 mL mTeSR1 (STEMCELL Technologies, Vancouver, Canada) per well of a 12-well tissue culture treated plate (Corning, Inc., Corning, N.Y.) coated with 5 micrograms per milliliter (μg/mL) full-length vitronectin (PeproTech, Rocky Hill, N.J.) (Parr et al. (2016) Methods in Molecular Biology 1357:221-9). The plate had been previously coated with vitronectin at 37° C. for 2 hours per manufacturer's protocol. The plated cells were incubated overnight at 37° C., to allow adherence to the vitronectin coated plate. The cells may be incubated in either normoxic or hypoxic conditions, and typically were incubated under the same conditions used to maintain the primed HPSC culture. […] Cells were monitored for compaction and defined colony edges. […]

[4] = test system: naïve HPSCs; experiment: Karyotype of transitioned naïve HPSCs (high-resolution G banding); details: after 10 passages in RSet media
Source text: Naïve HPSCs were examined by high-resolution G banding after 10 passages in RSet medium.

| Molecule | differentiation / maintenance of pluripotency (morphology changes) [1] | differentiation / maintenance of undifferentiated state (morphology changes) [2] | support of transition from primed to naïve pluripotent state [3] | karyotype of naïve HPSCs derived on the substrate [4] |
| --- | --- | --- | --- | --- |
| O=C(NOC[C@H](O)CO)c1ccc(F)c(F)c1Nc1ccc(I)cc1F [PD0325901] | induces differentiation; also recorded: displayed immediate differentiation | maintain their undifferentiated state | – | – |
| B1 | – | – | supports the successful transition | normal karyotype |
